Measured values taken from patent publication US11952593B2, “Detection and treatment of daughter number variations in cancer cells” (PharmacoGenetics Limited, priority 2020, dated 2024).

Tests used:
A549 cells = assay: Daughter-cell subgroups P1 through P8 in mitoses with DNV, A549; type: cell-based, human; conditions: A549, 24 hours, wogonin 50 μM, 5-FU 20 μM
From the text: “Daughter Number Variation” is a process that occurs during mitosis, where more than two daughter cells are produced per mitotic division. It is a two-stage process, wherein cell divisions of mono-nucleate, bi-nucleate, tri-nucleate and tetra-nucleate mother cells at Stage 1 produce subgroups of single mono-nucleate cells (herein referred to as P1), and subgroups containing one bi-nucleate cell and two mono-nucleate cells (herein referred to as P2). Stage 1 is followed by Stage 2, during which time some of the daughter cells from Stage 1 fuse to produce multi-nucleate cell subgroups, where the different subgroups differ with respect to the number of constituent cells and their nucleate status (herein referred to as P3 through P8). All the subgroups from a single DNV mitosis stay close to one another to form a distinct cluster when the cell culture is not overly dense with cells.
P1 subgroup cells are daughter mono-nucleate cells resulting from mitoses with DNV that have not undergone any post-mitotic cell fusion. P2 subgroup daughter cells are clusters of one bi-nucleate cell and two mono-nucleate cells, which also have not undergone any post-mitotic cell fusion during DNV, whereas each of the multi-nucleated subgroups contains at least one cell that is generated from post-mitotic fusions between the Stage 1 cells. P3 through P8 are daughter cell subgroups, which result from cell fusions during DNV, and wherein each subgroup includes at least one multinucleate cell.
By way of example and not of limitation, there is at least one multinucleate cell with two nuclei in P3 and P5, one multinucleate cell with three nuclei in P4 and P6, one multinucleate cell with four nuclei in P7, and one multinucleate cell with five nuclei in P8, sharing the same cytoplasm. More specifically, P3 cell subgroups are clusters of one multinucleate cell with two nuclei and one mononucleate cell, P4 cell subgroups are one multinucleate cell with three nuclei, P5 cell subgroups are clusters of either two multinucleate cells with two nuclei or one multinucleate cell with two nuclei and one binucleate cell, P6 cell subgroups are clusters of one multinucleate cell with three nuclei and one mononucleate cell, P7 cell subgroups are one multinucleate cell with four nuclei, and P8 cell subgroups are one multinucleate cell with five nuclei. P1 through P8 cell subgroups are depicted in detail in FIG. 2.
The counts of P1 and P2 subgroups of cancer cells are then used to obtain their proportions based on the total number of cell subgroups P1 through P8 that resulted from mitotic DNVs during the predetermined period of time. The proportions are typically expressed as percentages. The proportion of P1 subgroup of cells is calculated as (number of P1 subgroups)+(total number of daughter cell subgroups)×100%, and the proportion of (P1 and P2) subgroup is calculated as (number of P1 subgroups+number of P2 subgroups)+(total number of daughter cell subgroups)×100%. This can also be expressed as (number of P1 subgroups)+(total number of P1 through P8 subgroups)×100%, or (number of P1 subgroups+number of P2 subgroups)+(total number of P1 through P8 subgroups)×100%, respectively.
To investigate DNVs, the human HepG2 hepatocellular carcinoma, HeLa cervical adenocarcinoma, and A549 lung adenocarcinoma cell lines, as well as the non-cancerous RPE1 line of hTRET-immortalized retina epithelial cells, were obtained from the American Type Culture Collection (ATCC, Manassas, Va., USA) and cultivated in Dulbecco's Modified Eagle Medium (DMEM) supplemented with 10% fetal bovine serum (Gemini Bio-Products, Sacramento. Calif.) under a humidified atmosphere of 5% C02 at 37° C. […]

[1] = system: HeLa cervical adenocarcinoma cells; assay: Time-lapse microscopy count of multi-daughter divisions (DNV frequency), HeLa; type: cell-based, human; conditions: wogonin 50 μM, 5-FU 20 μM
Experimental: To investigate DNVs, the human HepG2 hepatocellular carcinoma, HeLa cervical adenocarcinoma, and A549 lung adenocarcinoma cell lines, as well as the non-cancerous RPE1 line of hTRET-immortalized retina epithelial cells, were obtained from the American Type Culture Collection (ATCC, Manassas, Va., USA) and cultivated in Dulbecco's Modified Eagle Medium (DMEM) supplemented with 10% fetal bovine serum (Gemini Bio-Products, Sacramento. Calif.) under a humidified atmosphere of 5% C02 at 37° C. After 24 hours, the old medium was replaced by acidic DMEM growth medium buffered by 15 mM 2-(N-morpholino)-ethanesulfonic acid.HCl (MES) at pH 6.4, neutral DMEM growth medium buffered by 15 mM 3-(N-morpholino)propanesulfonic acid.HCl (MOPS) at pH 7.4, alkaline growth medium buffered by 15 mM tris(hydroxymethyl)aminomethane.HCl (Tris) at pH 8.4, or neutral DMEM growth medium containing wogonin (50 μM) or 5-FU (20 μM). Using phase contrast microscopy, time-lapse photographs were recorded at different positions of the wells at 15-minute intervals for 24 hours using the Nikon ECLIPSE Ti Live Cell Imaging Observatory, enabling the count of P1 through P8 patterns at the end of Stage 2 of the DNV process (FIG. 1). All the images were photographed at 100× magnification. Altemately, using fluorescence microscopy, the cells were seeded into 12 well plates at 1×10^3 per well and stained with Hoechst 33342 ([…], Thermofisher) for 30 minutes in an incubator at 37° C. After 30 minutes, culture medium was replaced by various treatment media and placed under the Nikon ECLIPSE Ti Live Cell Imaging Observatory for 24 hours. For the HeLa, HepG2 and A549 cells, the various treatments were also extended to 5 days. Because the RPE1 cells yielded no DNVs after 24 hours of drug treatment, its treatment periods were not extended beyond 24 hours. All the cells were manually traced and quantified using the ImageJ software. DNV frequencies were estimated by dividing the total number of multi-daughter ([…]) divisions by the total number of cell divisions. Fluorescence staining and time-lapse microscopy were employed to differentiate between the bi-, tri-, tetra- and penta-daughter cell divisions, and to estimate the percentages of the P1 through P8 patterns in the final daughter cells generated by each of the DNV events. GraphPad Prism 5.0 software was employed for statistical analysis, and the results were presented as the mean. Significance was determined using the Student t-test (two-tailed, unpaired/unequal variances).

SMILES | Mitoses with DNV, number (A549 cells) | P1 + P2 subgroups, number (A549 cells) | P1 subgroups, number (A549 cells) | P2 subgroups, number (A549 cells) | P3 subgroups, number (A549 cells) | P4 subgroups, number (A549 cells) | P5 subgroups, number (A549 cells) | P6 subgroups, number (A549 cells) | P7 subgroups, number (A549 cells) | P8 subgroups, number (A549 cells) | Bi-daughter divisions, % of total divisions ([1]; 24 hours) [%] | Bi-daughter divisions, number ([1]; 24 hours) | Sum of Multi daughter Divisions, % of total mitotic divisions ([1]; 24 hours) [%] | Sum of Multi daughter Divisions, number ([1]; 24 hours) | Tetra-daughter divisions, % of total divisions ([1]; 24 hours) [%] | Tetra-daughter divisions, number ([1]; 24 hours) | Total number of observed divisions ([1]; 24 hours) | Tri-daughter divisions, % of total divisions ([1]; 24 hours) [%] | Tri-daughter divisions, number ([1]; 24 hours) | ≥Tetra-daughter divisions, number ([1]; 24 hours) | further results
COc1c(O)cc(O)c2c(=O)cc(-c3ccccc3)oc12 [Wogonin, wogonin] | 7 | 4 | 4 | 0 | 3 | 0 | 0 | 0 | 0 | 0 | 98.3 | 3041 | 1.70 | 53 | 0.19 | 6 | 3094 (100) | 1.54 | 47 | 0 | P1 + P2 subgroups, % of all P1 through P8 subgroups (A549 cells): (57.1) %; P1 subgroups, % of all P1 through P8 subgroups (A549 cells): (57.1) %; P3 subgroups, % of all P1 through P8 subgroups (A549 cells): (42.8) %; P1 + P2 subgroups, % of all P1 through P8 subgroups (A549 cells; listed as wogonin): 57.1%; P1 subgroups, % of all P1 through P8 subgroups (A549 cells; listed as wogonin): 57.1%; Bi-daughter divisions, % of total divisions ([1]; 5 days): 84%; Bi-daughter divisions, number ([1]; 5 days): 205; Sum of Multi-daughter Divisions, % of total mitotic divisions ([1]; 5 days): 16.3%; Sum of Multi-daughter Divisions, number ([1]; 5 days): 40; Tetra-daughter divisions, % of total divisions ([1]; 5 days): 2.4%; Tetra-daughter divisions, number ([1]; 5 days): 6; Total Divisions ([1]; 5 days): 245 (100); Tri-daughter divisions, % of total divisions ([1]; 5 days): 13.0%; Tri-daughter divisions, number ([1]; 5 days): 32; ≥Tetra-daughter divisions, % of total divisions ([1]; 5 days): 0.8%; ≥Tetra-daughter divisions, number ([1]; 5 days): 2
O=c1[nH]cc(F)c(=O)[nH]1 [5-FU, 5-flurouracil] | 3 | 3 | 3 | 0 | 0 | 0 | 0 | 0 | 0 | 0 | 99.0 | 3264 | 0.97 | 32 | 0.09 | 3 | 3296 (100) | 0.88 | 29 | 0 | Bi-daughter divisions, % of total divisions ([1]; 5 days): 91.8%; Bi-daughter divisions, number ([1]; 5 days): 143; Sum of Multi-daughter Divisions, % of total mitotic divisions ([1]; 5 days): 8.3%; Sum of Multi-daughter Divisions, number ([1]; 5 days): 13; Tetra-daughter divisions, number ([1]; 5 days): 0; Total Divisions ([1]; 5 days): 156 (100); Tri-daughter divisions, % of total divisions ([1]; 5 days): 8.3%; Tri-daughter divisions, number ([1]; 5 days): 13; ≥Tetra-daughter divisions, number ([1]; 5 days): 0
